Measurements from patent US20130309380A1, “METHODS FOR PRESERVING FRESH PRODUCE” (NatureSeal, Inc., priority 2003, published 2013).

Tests used:
Red Delicious apples [1] = assay: Evaluation of sliced Red Delicious apples (Examples 14 and 15, scores)
Experimental: The texture, flavor, and moistness of the fruit were evaluated by tasting fruit samples. The color and/or appearance was also evaluated by visual inspection. […] Then the apple slices were dipped for 1 minute into the following solutions: 3% ascorbic acid and 0.8% NH4Cl. For comparision, untreated slices were used as well as apple slices treated with 3% ascorbic acid or 2% ascorbic acid. The apples were removed, drained for 1-2 minutes, sealed in 2 mil, polyethylene bags, and stored at 2-5° C. Red Delicious apples were preserved with the fresh produce preservative as in Example 14a, except that the preservative solution contained 3.0% ascorbic acid and 0.8% CuSO4.

Hass avocadoes = assay: Evaluation of sliced Hass avocadoes preserved with fresh produce preservative (scores)
Experimental: (§1) The texture, flavor, and moistness of the fruit were evaluated by tasting fruit samples. The color and/or appearance was also evaluated by visual inspection. The color, texture, moistness and flavor were then evaluated according to a scale of either 1 to 10, with 10 being the value assigned to a freshly cut piece of comparative fruit or vegetable. A value of less than 7 is not acceptable.
(§2) Whole Red Delicious apples were rinsed with tap water, sanitized with a sodium hypochlorite solution containing 100 ppm chlorine, then cored and sliced. The apple slices were immersed in water for 0.5 to 2 minutes. Then the apple slices were dipped into produce preservative solution containing 4% ascorbic acid and 1.59% K2CO3 having a pH 5.69 for 1 minute. The slices were removed from the solution and drained for 1-2 minutes, sealed in polyethylene bags, and stored at 2-5° C. For controls, sliced apples either not treated or were dipped into either 4% ascorbic acid with 0.66% NaOH to adjust the pH to 4.45. For comparison, sliced apples were dipped into a solution containing 4% ascorbic acid and 1.22% Na2CO3 and having a pH of 5.58.
Hass avocadoes were preserved with the fresh produce preservative as in Example 1a, except that the preservative solution contained 9.3% ascorbic acid and 5.7% MnCl2.4H2O.
Sliced Hass avocadoes were preserved with the fresh produce preservative as in Example la, except that the preservative solution contained 6.5% ascorbic acid and 3.5% potassium chloride. For control, a 7% ascorbic acid solution was used.

Red Delicious apples [2] = assay: Hardness of sliced Red Delicious apples measured with QTS25
Experimental: The firmness or hardness of the fruit is the force required for a probe to penetrate the fruit a given distance into the fruit. The firmness is determined using a Quality and Test System 25 and TA 40 probe from Stevens Company. The TA 40 probe a black acetate, 4.5 mm diameter, 20 mm long rod probe having a flat end. The following settings were employed in the QTS system: the test type is a compression test of one cycle, 0 second hold time, 0 second recovery, 5 g trigger point, 30 mm/min test speed, target unit distance, and a target value of 3 mm. The apple pieces were 1 cm thick.
as §2
(§3) The apples were evaluated and scored on a scale of 0-10 at time intervals. A score of 10 means that the fruit's color and appearance is as good as fresh cut fruit. A score of 7 is the minimum acceptable appearance. Hardness was measured with QTS25.

Granny Smith apples = assay: Evaluation of sliced Granny Smith apples preserved with fresh produce preservative (scores); conditions: scale to 10
Red Delicious apples [3] = assay: Evaluation of sliced Red Delicious apples preserved with fresh produce preservative (scores); conditions: for Color / Flavor / Moistness / Texture: scale 0-10; for color/appearance score: scale to 10
Experimental: as §1, §2, §3
Red Delicious apples and Granny Smith apples were preserved with the fresh produce preservative as in Example 1 a, except that the preservative solution contained 4% ascorbic acid and 1% Li2CO3.

Work on `O=C1O[C@H]([C@@H](O)CO)C(O)=C1O` [Ascorbic Acid, ascorbic acid] yielded a color/appearance score (Red Delicious apples [1]; 1 hour, scale to 10 (Table 15)) of 10, a color/appearance score (Red Delicious apples [1]; 1 hour, scale to 10 (Table 16)) of 10 and a color/appearance score (Red Delicious apples [1]; 24 hours, scale to 10 (Table 15), listed as 2% Ascorbic Acid Control, 2% Ascorbic Acid control dip) of 5.33. The color/appearance score (Red Delicious apples [1]; 24 hours, scale to 10 (Table 15), listed as 3% Ascorbic Acid Control, 3% Ascorbic Acid control dip) was 6, the color/appearance score (Red Delicious apples [1]; 24 hours, scale to 10 (Table 16), listed as 2% Ascorbic Acid Control, 2% Ascorbic Acid control) was 5 and the color/appearance score (Red Delicious apples [1]; 24 hours, scale to 10 (Table 16), listed as 3% Ascorbic Acid Control, 3% Ascorbic Acid control) was 6. The color/appearance score (Red Delicious apples [1]; Day 3, scale to 10 (Table 15), listed as 2% Ascorbic Acid Control, 2% Ascorbic Acid control dip) was 5, the color/appearance score (Red Delicious apples [1]; Day 3, scale to 10 (Table 15), listed as 3% Ascorbic Acid Control, 3% Ascorbic Acid control dip) was 6 and the color/appearance score (Red Delicious apples [1]; Day 3, scale to 10 (Table 16), listed as 2% Ascorbic Acid Control, 2% Ascorbic Acid control) was 5. The color/appearance score (Red Delicious apples [1]; Day 3, scale to 10 (Table 16), listed as 3% Ascorbic Acid Control, 3% Ascorbic Acid control) was 6, the color/appearance score (Red Delicious apples [1]; Day 4, scale to 10 (Table 15), listed as 2% Ascorbic Acid Control, 2% Ascorbic Acid control dip) was 6 and the color/appearance score (Red Delicious apples [1]; Day 4, scale to 10 (Table 15), listed as 3% Ascorbic Acid Control, 3% Ascorbic Acid control dip) was 4. The color/appearance score (Red Delicious apples [1]; Day 5, scale to 10 (Table 15), listed as 2% Ascorbic Acid Control, 2% Ascorbic Acid control dip) was 6, the color/appearance score (Red Delicious apples [1]; Day 5, scale to 10 (Table 15), listed as 3% Ascorbic Acid Control, 3% Ascorbic Acid control dip) was 4 and the color/appearance score (Red Delicious apples [1]; Day 6, scale to 10 (Table 15), listed as 2% Ascorbic Acid Control, 2% Ascorbic Acid control dip) was 6. For the same compound, the color/appearance score (Red Delicious apples [1]; Day 6, scale to 10 (Table 15), listed as 3% Ascorbic Acid Control, 3% Ascorbic Acid control dip) was 4, the color/appearance score (Hass avocadoes; 1 day, scale to 10 (Table 6), listed as 6% Ascorbic Acid control, 6% Ascorbic Acid control) was 6 and the color/appearance score (Hass avocadoes; 1 day, scale to 10 (Table 6), listed as 7% Ascorbic Acid control, 7% Ascorbic Acid control) was 7. For the same compound, the color/appearance score (Hass avocadoes; 1 day, scale to 10 (Table 6), listed as 8% Ascorbic Acid control, 8% Ascorbic Acid control) was 8.5, the color/appearance score (Hass avocadoes; 1 day, scale to 10 (Table 7)) was 7 and the color/appearance score (Hass avocadoes; 2 days, scale to 10 (Table 7)) was 6. It also gave a color/appearance score (Hass avocadoes; 4 days, scale to 10 (Table 6)) of 6, a Hardness (Red Delicious apples [2]; 0 hour) of 2083 and a Hardness (Red Delicious apples [2]; 1 week at 2-5° C.) of 1578. The Hardness (Red Delicious apples [2]; 2 week at 2-5° C.) was 1072, the color/appearance score (Granny Smith apples; 1 week) was 6 and the color/appearance score (Granny Smith apples; 1 day) was 10. It also gave a color/appearance score (Granny Smith apples; 3 days) of 10, a Color (Red Delicious apples [3]; 0 hour) of 10 and a Flavor (Red Delicious apples [3]; 0 hour) of 5. It also gave a Moistness (Red Delicious apples [3]; 0 hour) of 10, a Texture (Red Delicious apples [3]; 0 hour) of 10 and a Color (Red Delicious apples [3]; 1 week at 2-5° C.) of 9.6. It also gave a Flavor (Red Delicious apples [3]; 1 week at 2-5° C.) of 7, a Moistness (Red Delicious apples [3]; 1 week at 2-5° C.) of 10 and a Texture (Red Delicious apples [3]; 1 week at 2-5° C.) of 7.8. For the same compound, the color/appearance score (Red Delicious apples [3]; 1 week) was 6, the Color (Red Delicious apples [3]; 2 week at 2-5° C.) was 8.4 and the Flavor (Red Delicious apples [3]; 2 week at 2-5° C.) was 7. For the same compound, the Moistness (Red Delicious apples [3]; 2 week at 2-5° C.) was 9, the Texture (Red Delicious apples [3]; 2 week at 2-5° C.) was 7 and the Color (Red Delicious apples [3]; 1 day at 2-5° C.) was 10. For the same compound, the Flavor (Red Delicious apples [3]; 1 day at 2-5° C.) was 8, the Moistness (Red Delicious apples [3]; 1 day at 2-5° C.) was 10 and the Texture (Red Delicious apples [3]; 1 day at 2-5° C.) was 9.8. For the same compound, the color/appearance score (Red Delicious apples [3]; 24 hours (app)) was 9 and the color/appearance score (Red Delicious apples [3]; 3 days) was 9.
